Results taken from patent publication US20260116868A1 (Arcus Biosciences, Inc., priority 2023, published 2026).
Like-named read-outs stand apart in the source and are kept apart here.

How the values were obtained:
[1] = molecular target: T1, Cbl-b (Homo sapiens, UniProt Q13191); experiment: Cbl-b probe displacement HTRF binding assay; conditions: 0.4 nM Cbl-b, 150 nM BODIPY probe
T1 construct: biotin (biotinylated protein)
Method in brief: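 Compound competes with BODIPY probe (150 nM) for biotinylated Cbl-b (0.4 nM) in HEPES/NaCl/Triton/TCEP/BSA buffer; 60 min preincubation, 15 min with probe, room temperature. Tb-streptavidin HTRF read; % displacement vs DMSO and no-protein controls, IC50 from four-parameter fit.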

[2] = tested on: Jurkat cells; experiment: IL-2 secretion assay in Jurkat cells activated with CD3/CD28 T Cell Activator; assay type: cell-based; conditions: Homo sapiens, 24 h, read-out: IL-2 Secretion (EC50)
Method in brief: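 Jurkat cells in Opti-MEM were preincubated 1 h at 37° C with compound (final 10 μM to 300 pM, 16-point 1:2 dilution), then activated with human CD3/CD28 T Cell Activator for 24 h at 37° C. Supernatant IL-2 measured by AlphaLISA; EC50 from 4-parameter logistic fit.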

[3] = Jurkat cells, CD3/CD28 T Cell Activator, IL-2 AlphaLISA

T1 sequence (Q13191 whole entry, species assumed): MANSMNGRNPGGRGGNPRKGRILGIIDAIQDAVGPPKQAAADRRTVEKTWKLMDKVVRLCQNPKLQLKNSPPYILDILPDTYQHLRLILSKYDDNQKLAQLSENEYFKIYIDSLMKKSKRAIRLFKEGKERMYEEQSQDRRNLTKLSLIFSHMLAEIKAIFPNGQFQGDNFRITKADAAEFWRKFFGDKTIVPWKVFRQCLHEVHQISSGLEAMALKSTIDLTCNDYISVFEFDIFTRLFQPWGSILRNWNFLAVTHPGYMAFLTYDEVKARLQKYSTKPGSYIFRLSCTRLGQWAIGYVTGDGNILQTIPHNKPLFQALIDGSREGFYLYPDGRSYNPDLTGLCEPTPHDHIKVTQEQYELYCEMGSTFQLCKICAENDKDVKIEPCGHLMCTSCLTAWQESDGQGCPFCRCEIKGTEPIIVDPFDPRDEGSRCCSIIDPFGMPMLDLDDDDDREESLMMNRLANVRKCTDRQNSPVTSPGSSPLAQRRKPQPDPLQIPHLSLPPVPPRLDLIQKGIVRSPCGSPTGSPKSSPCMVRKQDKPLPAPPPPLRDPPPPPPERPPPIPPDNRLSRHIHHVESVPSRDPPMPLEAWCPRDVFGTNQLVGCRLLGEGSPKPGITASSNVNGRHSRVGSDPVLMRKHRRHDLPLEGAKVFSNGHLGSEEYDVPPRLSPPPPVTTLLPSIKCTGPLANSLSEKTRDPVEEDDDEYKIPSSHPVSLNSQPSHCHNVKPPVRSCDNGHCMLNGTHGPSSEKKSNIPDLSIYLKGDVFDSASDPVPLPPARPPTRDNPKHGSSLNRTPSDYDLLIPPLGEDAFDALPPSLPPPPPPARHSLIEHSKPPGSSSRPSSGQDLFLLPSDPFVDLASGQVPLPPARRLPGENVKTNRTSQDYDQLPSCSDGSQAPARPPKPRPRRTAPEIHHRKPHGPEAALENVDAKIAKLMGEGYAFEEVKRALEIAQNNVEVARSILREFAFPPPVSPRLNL

IC50 [1] [nM]	EC50 [2, 3] [nM]	SMILES	EC50 ([2]; Jurkat) [nM]
100 to 1000	> 5000	Cn1cnnc1-c1cc(F)ccc1-c1cc(NC(=O)c2cc(C3CCNC3)cn(CC3CC3)c2=O)nc(C2CC2)c1 (centres unmarked) [Example 31, N-[6-cyclopropyl-4-[4-fluoro-2-(4-methyl-1,2,4-triazol-3-yl)phenyl]pyridin-2-yl]-1-(cyclopropylmethyl)-2-oxo-5-pyrrolidin-3-ylpyridine-3-carboxamide]	
< 100	< 100	COCCNCc1cc(C(=O)Nc2cc(-c3ccc(C#N)cc3-c3nc(C#N)cn3C)cc(C3CC3)n2)c(=O)n(C2CC2)c1 [Example 48, N-{4-[4-cyano-2-(4-cyano-1-methyl-2-imidazolyl)phenyl]-6-cyclopropyl-2-pyridyl}-1-cyclopropyl-5-[(2-methoxyethylamino)methyl]-2-oxo-1,2-dihydronicotinamide]	
100 to 1000	1000 to 5000	COCCNCc1cc(C(=O)Nc2cc(-c3ccc(F)cc3-n3cc(CF)nn3)cc(C3CC3)n2)c(=O)n(C2CC2)c1 [Example 73, 1-Cyclopropyl-N-[6-cyclopropyl-4-[4-fluoro-2-[4-(fluoromethyl)triazol-1-yl]phenyl]pyridin-2-yl]-5-[(2-methoxyethylamino)methyl]-2-oxopyridine-3-carboxamide]	
< 100	< 100	CCOc1cc(-c2ccc(F)cc2-c2nncn2C)cc(NC(=O)c2cc(CNCCOC)cn(C3CC3)c2=O)n1 [Example 5, 1-cyclopropyl-N-[6-ethoxy-4-[4-fluoro-2-(4-methyl-1,2,4-triazol-3-yl)phenyl]pyridin-2-yl]-5-[(2-methoxyethylamino)methyl]-2-oxopyridine-3-carboxamide]	
< 100	< 100	COCCNCc1cc(C(=O)Nc2cc(-c3ccc(C#N)cc3-c3nncn3C(F)F)cc(C3CC3)n2)c(=O)n(C2CC2)c1 [Example 14, N-(4-{4-cyano-2-[4-(difluoromethyl)-4H-1,2,4-triazol-3-yl]phenyl}-6-cyclopropyl-2-pyridyl)-1-cyclopropyl-5-[(2-methoxyethylamino)methyl]-2-oxo-1,2-dihydronicotinamide]	
< 100	< 100	CO[C@@H](C)CNCc1cc(C(=O)Nc2cc(-c3ccc(C#N)cc3C(=O)N3CC(F)(F)C3)cc(C3CC3)n2)c(=O)n(C2CC2)c1 [Example 95, N-(4-{4-cyano-2-[(3,3-difluoro-1-azetidinyl)carbonyl]phenyl}-6-cyclopropyl-2-pyridyl)-5-{[(S)-2-methoxypropylamino]methyl}-1-cyclopropyl-2-oxo-1,2-dihydronicotinamide]	
< 100	< 100	CC1(NCc2cc(C(=O)Nc3cc(-c4ccc(C#N)cc4-c4nncn4C(F)F)cc(C4CC4)n3)c(=O)n(C3CC3)c2)CCC1 [Example 10, N-(4-{4-cyano-2-[4-(difluoromethyl)-4H-1,2,4-triazol-3-yl]phenyl}-6-cyclopropyl-2-pyridyl)-1-cyclopropyl-5-[(1-methylcyclobutylamino)methyl]-2-oxo-1,2-dihydronicotinamide]	
< 100	< 100	Cn1cnnc1-c1cc(F)ccc1-c1cc(NC(=O)c2cc(CNCC3(F)CCC3)cn(C3CC3)c2=O)nc(C2CC2)c1 [Example 24, N-{6-cyclopropyl-4-[4-fluoro-2-(4-methyl-4H-1,2,4-triazol-3-yl)phenyl]-2-pyridyl}-1-cyclopropyl-5-({[(1-fluorocyclobutyl)methyl]amino}methyl)-2-oxo-1,2-dihydronicotinamide]	
1000 to 5000	> 5000	COCCNCc1cc(C(=O)Nc2cc(-c3ccc(C#N)cc3-c3ocnc3C)cc(C3CC3)n2)c(=O)n(C2CC2)c1 [Example 52, N-{4-[4-cyano-2-(4-methyl-1,3-oxazol-5-yl)phenyl]-6-cyclopropyl-2-pyridyl}-1-cyclopropyl-5-[(2-methoxyethylamino)methyl]-2-oxo-1,2-dihydronicotinamide]	
< 100	100 to 1000	C[C@H]1CCCN(Cc2cc(C(=O)Nc3cc(-c4ccc(C#N)cc4-c4nccn4C)cc(Cl)n3)c(=O)n(C3CC3)c2)C1 [Example 35, N-{6-chloro-4-[4-cyano-2-(1-methyl-2-imidazolyl)phenyl]-2-pyridyl}-5-{[(S)-3-methyl-1-piperidyl]methyl}-1-cyclopropyl-2-oxo-1,2-dihydronicotinamide]	
< 100	< 100	C[C@H]1CCCN(Cc2cc(C(=O)Nc3cc(-c4ccc(F)cc4-c4nncn4C)cc(C4CC4)n3)c(=O)n(CC3CC3)c2)C1 [Example 56, N-[6-cyclopropyl-4-[4-fluoro-2-(4-methyl-1,2,4-triazol-3-yl)phenyl]pyridin-2-yl]-1-(cyclopropylmethyl)-5-[[(3S)-3-methylpiperidin-1-yl]methyl]-2-oxopyridine-3-carboxamide]	
< 100	< 100	CO[C@@H](C)CNCc1cc(C(=O)Nc2cc(-c3c(F)cc(Cl)cc3C(=O)N3CC(F)(F)C3)cc(C3CC3)n2)c(=O)n(C2CC2)c1 [Example 102, N-[4-[4-chloro-2-(3,3-difluoroazetidine-1-carbonyl)-6-fluorophenyl]-6-cyclopropylpyridin-2-yl]-1-cyclopropyl-5-[[[(2S)-2-methoxypropyl]amino]methyl]-2-oxopyridine-3-carboxamide]	
< 100	< 100	C[C@H]1CCCN(Cc2cc(C(=O)Nc3cc(-c4ccc(F)cc4-c4nncn4C)cc(C4CC4)n3)c(=O)n(CCO)c2)C1 [Example 59, N-[6-cyclopropyl-4-[4-fluoro-2-(4-methyl-1,2,4-triazol-3-yl)phenyl]pyridin-2-yl]-1-(2-hydroxyethyl)-5-[[(3S)-3-methylpiperidin-1-yl]methyl]-2-oxopyridine-3-carboxamide]	
< 100	100 to 1000	COC1CN(Cc2cc(C(=O)Nc3cc(-c4ccc(F)cc4-c4nncn4C)cc(C4CC4)n3)c(=O)n(C3CC3)c2)C1 [Example 26, N-{6-cyclopropyl-4-[4-fluoro-2-(4-methyl-4H-1,2,4-triazol-3-yl)phenyl]-2-pyridyl}-1-cyclopropyl-5-[(3-methoxy-1-azetidinyl)methyl]-2-oxo-1,2-dihydronicotinamide]	
< 100	100 to 1000	Cn1ccnc1-c1cc(C#N)ccc1-c1cc(NC(=O)c2cc(CN3CCC4(CC4)C3)cn(C3CC3)c2=O)nc(C2CC2)c1 [Example 41, N-{4-[4-cyano-2-(1-methyl-2-imidazolyl)phenyl]-6-cyclopropyl-2-pyridyl}-5-{(5-aza-5-spiro[2.4]heptyl)methyl}-1-cyclopropyl-2-oxo-1,2-dihydronicotinamide]	
< 100	100 to 1000	C[C@H]1CCCN(Cc2cc(C(=O)Nc3cc(-c4ccc(F)cc4-c4nncn4C)cc(C4CC4)n3)c(=O)n(CC3CCOCC3)c2)C1 [Example 60, N-[6-cyclopropyl-4-[4-fluoro-2-(4-methyl-1,2,4-triazol-3-yl)phenyl]pyridin-2-yl]-5-[[(3S)-3-methylpiperidin-1-yl]methyl]-1-(oxan-4-ylmethyl)-2-oxopyridine-3-carboxamide]	
100 to 1000	1000 to 5000	COCCNCc1cc(C(=O)Nc2cc(-c3ccc(C(=O)OC)cc3-c3ncoc3C)cc(C3CC3)n2)c(=O)n(C2CC2)c1 (single isomer, unassigned) [Example 51, methyl 4-(6-cyclopropyl-2-{1-cyclopropyl-5-[(2-methoxyethylamino)methyl]-2-oxo-1,2-dihydronicotinoylamino}-4-pyridyl)-3-(5-methyl-1,3-oxazol-4-yl)benzoate]	
< 100	< 100	COCCNCc1cc(C(=O)Nc2cc(-c3ccc(C#N)cc3-c3ncoc3C)cc(C3CC3)n2)c(=O)n(C2CC2)c1 (single isomer, unassigned) [Example 50, N-{4-[4-cyano-2-(5-methyl-1,3-oxazol-4-yl)phenyl]-6-cyclopropyl-2-pyridyl}-1-cyclopropyl-5-[(2-methoxyethylamino)methyl]-2-oxo-1,2-dihydronicotinamide]	
100 to 1000	> 5000	Cn1ccnc1-c1cc(C#N)ccc1-c1cc(NC(=O)c2cc(CO)cn(C3CC3)c2=O)nc(C2CC2)c1 (single isomer, unassigned) [Example 37, N-{4-[4-cyano-2-(1-methyl-2-imidazolyl)phenyl]-6-cyclopropyl-2-pyridyl}-1-cyclopropyl-5-(hydroxymethyl)-2-oxo-1,2-dihydronicotinamide]	
< 100	< 100	C[C@H]1CCCN(Cc2cc(C(=O)Nc3cc(-c4ccc(C#N)cc4-c4nncn4C(F)F)cc(C4CC4)n3)c(=O)n(C3CC3)c2)C1 [Example 7, N-(4-{4-cyano-2-[4-(difluoromethyl)-4H-1,2,4-triazol-3-yl]phenyl}-6-cyclopropyl-2-pyridyl)-5-{[(S)-3-methyl-1-piperidyl]methyl}-1-cyclopropyl-2-oxo-1,2-dihydronicotinamide]	

SMILES	IC50 [1] [nM]	EC50 [2, 3] [nM]	EC50 ([2]; Jurkat) [nM]
COCCNCc1cc(C(=O)Nc2cc(-c3ccc(C#N)cc3-c3[nH]c(C)nc3C)cc(C3CC3)n2)c(=O)n(C2CC2)c1 [Example 54, N-{4-[4-cyano-2-(2,4-dimethyl-5-imidazolyl)phenyl]-6-cyclopropyl-2-pyridyl}-1-cyclopropyl-5-[(2-methoxyethylamino)methyl]-2-oxo-1,2-dihydronicotinamide]	< 100		100 to 1000
C[C@H]1CCCN(Cc2cc(C(=O)Nc3cc(-c4ccc(C#N)cc4-c4nncn4C)cc(C4CC4)n3)c(=O)n(C3CC3)c2)C1 [Example 1, N-{4-[4-cyano-2-(4-methyl-4H-1,2,4-triazol-3-yl)phenyl]-6-cyclopropyl-2-pyridyl}-5-{[(S)-3-methyl-1-piperidyl]methyl}-1-cyclopropyl-2-oxo-1,2-dihydronicotinamide]	< 100		< 100
